Measurements from patent US5478816A, “Liquid vitamin formulations containing vitamin D esters” (Bristol-Myers Squibb Company, priority 1993, dated 1995).
Values joined by “and” are separate entries in the source; they are usually repeats but may differ in a detail not shown here. Equal entries are not always repeated.

Assay: Short-term stability of vitamin D3 and vitamin D3 palmitate in liquid vitamin formulations at 40° C. (HPLC assay)
Type: physicochemical
Settings: for Vitamin D content on storage: 40° C.
Method: In addition to the above, the vitamin formulation contains flavorants, stabilizer of vitamins, and about 1.0% polysorbate 80 as surfactant. As appreciated by the skilled artisan, appropriate overages of vitamins are included in order to assure meeting the label claims. The example composition contains 1.86:1 ratio by weight of glycerine to water. The pH is 5.0 which is adjusted by using an appropriate ratio of ascorbic acid to sodium ascorbate.
Vitamin D was analyzed by a HPLC assay as described by Matthew G. Sliva, et al., "Reversed-Phase Liquid Chromatographic Determination of Vitamin D in Infant Formulas and Enteral Nutritionals," J Assoc. Off. Anal. Chem., 75, 566, 1992, except that saponification conditions of 70° C. for 40 minutes were employed.
Stability of vitamins D3 and D3 palmitate were compared in various vitamin formulations containing different amounts of water and glycerin and at different pHs. The other ingredients and method of pH adjustment were as described in Example 1. The results are in Tables 2-5. Each batch number represents a different liquid vitamin formulation. The amount of glycerin varied between 650 and 850 mg/ml, depending upon the amount of water. "Vit" represents vitamin, "Desc." represents description,"Vit D3" represents vitamin D3, and "Vit D3P" or "D3 P" represents vitamin D3 palmitate. Table 1 lists the half-life (T50) values, i.e., time to degrade to 50% of the starting concentration of vitamins D3 and D3 palmitate at 40° C., These T50 values were calculated by fitting the data to first order degradation rate.

Compound: C=C1CC[C@H](OC(=O)CCCCCCCCCCCCCCC)C/C1=C/C=C1\CCC[C@]2(C)[C@@H]([C@H](C)CCCC(C)C)CC[C@@H]12 [Vitamin D3 P, vitamin D3 palmitate]
- half-life (liquid vitamin formulation, pH 5.6, Time in Weeks for 50% Degradation (T50)): 113 days
- Vitamin D content on storage (pH 3.2, 252 mg/ml water, age 0 weeks, Batch #1 (D3), #2 (D3 P)): 810 IU/ml
- Vitamin D content on storage (pH 3.2, 252 mg/ml water, age 2 weeks, Batch #1 (D3), #2 (D3 P)): 715 IU/ml and 717 IU/ml
- Vitamin D content on storage (pH 3.2, 252 mg/ml water, age 4 weeks, Batch #1 (D3), #2 (D3 P)): 668 IU/ml
- Vitamin D content on storage (pH 3.2, 252 mg/ml water, age 6 weeks, Batch #1 (D3), #2 (D3 P)): 598 IU/ml and 612 IU/ml
- Vitamin D content on storage (pH 3.2, 252 mg/ml water, age 8 weeks, Batch #1 (D3), #2 (D3 P)): 544 IU/ml and 574 IU/ml
- Vitamin D content on storage (pH 3.2, 252 mg/ml water, age 12 weeks, Batch #1 (D3), #2 (D3 P)): 471 IU/ml and 443 IU/ml
- Vitamin D content on storage (pH 3.2, 252 mg/ml water, age 16 weeks, Batch #1 (D3), #2 (D3 P)): 397 IU/ml and 385 IU/ml
- Vitamin D content on storage (pH 3.2, 390 mg/ml water, age 0 weeks, Batch #3 (D3), #4 (D3 P)): 430 IU/ml and 425 IU/ml
- Vitamin D content on storage (pH 3.2, 390 mg/ml water, age 1 week, Batch #3 (D3), #4 (D3 P)): 404 IU/ml and 405 IU/ml
- Vitamin D content on storage (pH 3.2, 390 mg/ml water, age 2 weeks, Batch #3 (D3), #4 (D3 P)): 405 IU/ml and 403 IU/ml
- Vitamin D content on storage (pH 3.2, 390 mg/ml water, age 4 weeks, Batch #3 (D3), #4 (D3 P)): 394 IU/ml and 397 IU/ml
- Vitamin D content on storage (pH 3.2, 390 mg/ml water, age 8 weeks, Batch #3 (D3), #4 (D3 P)): 384 IU/ml and 381 IU/ml
- Vitamin D content on storage (pH 3.2, 390 mg/ml water, age 12 weeks, Batch #3 (D3), #4 (D3 P)): 374 IU/ml and 370 IU/ml
- Vitamin D content on storage (pH 3.2, 390 mg/ml water, age 16 weeks, Batch #3 (D3), #4 (D3 P)): 366 IU/ml and 362 IU/ml
- Vitamin D content on storage (pH 4.2, 252 mg/ml water, age 0 weeks, Batch #5 (D3), #6 (D3 P)): 408 IU/ml and 405 IU/ml
- Vitamin D content on storage (pH 4.2, 252 mg/ml water, age 1 week, Batch #5 (D3), #6 (D3 P)): 391 IU/ml and 386 IU/ml
- Vitamin D content on storage (pH 4.2, 252 mg/ml water, age 2 weeks, Batch #5 (D3), #6 (D3 P)): 368 IU/ml and 371 IU/ml
- Vitamin D content on storage (pH 4.2, 252 mg/ml water, age 4 weeks, Batch #5 (D3), #6 (D3 P)): 314 IU/ml and 316 IU/ml
- Vitamin D content on storage (pH 4.2, 252 mg/ml water, age 8 weeks, Batch #5 (D3), #6 (D3 P)): 234 IU/ml
- Vitamin D content on storage (pH 4.2, 252 mg/ml water, age 12 weeks, Batch #5 (D3), #6 (D3 P)): 145 IU/ml and 146 IU/ml
- Vitamin D content on storage (pH 4.2, 252 mg/ml water, age 16 weeks, Batch #5 (D3), #6 (D3 P)): 145 IU/ml and 144 IU/ml
- Vitamin D content on storage (pH 4.2, 390 mg/ml water, age 0 weeks, Batch #7 (D3), #8 (D3 P)): 414 IU/ml and 418 IU/ml
- Vitamin D content on storage (pH 4.2, 390 mg/ml water, age 1 week, Batch #7 (D3), #8 (D3 P)): 397 IU/ml and 395 IU/ml
- Vitamin D content on storage (pH 4.2, 390 mg/ml water, age 2 weeks, Batch #7 (D3), #8 (D3 P)): 395 IU/ml and 399 IU/ml
- Vitamin D content on storage (pH 4.2, 390 mg/ml water, age 4 weeks, Batch #7 (D3), #8 (D3 P)): 379 IU/ml and 371 IU/ml
- Vitamin D content on storage (pH 4.2, 390 mg/ml water, age 8 weeks, Batch #7 (D3), #8 (D3 P)): 353 IU/ml and 347 IU/ml
- Vitamin D content on storage (pH 4.2, 390 mg/ml water, age 12 weeks, Batch #7 (D3), #8 (D3 P)): 339 IU/ml and 328 IU/ml
- Vitamin D content on storage (pH 4.2, 390 mg/ml water, age 16 weeks, Batch #7 (D3), #8 (D3 P)): 319 IU/ml and 315 IU/ml
- Vitamin D content on storage (pH 5.0, 252 mg/ml water, age 0 weeks, Batch #9 (D3), #10 (D3 P)): 426 IU/ml and 424 IU/ml
- Vitamin D content on storage (pH 5.0, 252 mg/ml water, age 1 week, Batch #9 (D3), #10 (D3 P)): 394 IU/ml and 397 IU/ml
- Vitamin D content on storage (pH 5.0, 252 mg/ml water, age 2 weeks, Batch #9 (D3), #10 (D3 P)): 363 IU/ml
- Vitamin D content on storage (pH 5.0, 252 mg/ml water, age 4 weeks, Batch #9 (D3), #10 (D3 P)): 335 IU/ml and 329 IU/ml
- Vitamin D content on storage (pH 5.0, 252 mg/ml water, age 8 weeks, Batch #9 (D3), #10 (D3 P)): 244 IU/ml
- Vitamin D content on storage (pH 5.0, 252 mg/ml water, age 12 weeks, Batch #9 (D3), #10 (D3 P)): 201 IU/ml and 193 IU/ml
- Vitamin D content on storage (pH 5.0, 252 mg/ml water, age 16 weeks, Batch #9 (D3), #10 (D3 P)): 123 IU/ml and 125 IU/ml
- Vitamin D content on storage (pH 5.0, 390 mg/ml water (so in the source), age 0 weeks, Batch #11 (D3), #12 (D3 P)): 433 IU/ml and 437 IU/ml
- Vitamin D content on storage (pH 5.0, 390 mg/ml water (so in the source), age 1 week, Batch #11 (D3), #12 (D3 P)): 404 IU/ml and 414 IU/ml
- Vitamin D content on storage (pH 5.0, 390 mg/ml water (so in the source), age 2 weeks, Batch #11 (D3), #12 (D3 P)): 380 IU/ml and 383 IU/ml
- Vitamin D content on storage (pH 5.0, 390 mg/ml water (so in the source), age 4 weeks, Batch #11 (D3), #12 (D3 P)): 364 IU/ml
- Vitamin D content on storage (pH 5.0, 390 mg/ml water (so in the source), age 8 weeks, Batch #11 (D3), #12 (D3 P)): 306 IU/ml and 300 IU/ml
- Vitamin D content on storage (pH 5.0, 390 mg/ml water (so in the source), age 12 weeks, Batch #11 (D3), #12 (D3 P)): 264 IU/ml and 263 IU/ml
- Vitamin D content on storage (pH 5.0, 390 mg/ml water (so in the source), age 16 weeks, Batch #11 (D3), #12 (D3 P)): 188 IU/ml and 186 IU/ml
- Vitamin D content on storage (pH 5.0, 390 mg/ml water, age 0 weeks, Batch #13 (D3), #14 (D3 P)): 593 IU/ml and 599 IU/ml
- Vitamin D content on storage (pH 5.0, 390 mg/ml water, age 1 week, Batch #13 (D3), #14 (D3 P)): 573 IU/ml and 570 IU/ml
- Vitamin D content on storage (pH 5.0, 390 mg/ml water, age 4 weeks, Batch #13 (D3), #14 (D3 P)): 554 IU/ml and 555 IU/ml
- Vitamin D content on storage (pH 5.0, 390 mg/ml water, age 8 weeks, Batch #13 (D3), #14 (D3 P)): 510 IU/ml and 500 IU/ml
- Vitamin D content on storage (pH 5.0, 390 mg/ml water, age 12 weeks, Batch #13 (D3), #14 (D3 P)): 525 IU/ml and 508 IU/ml
- Vitamin D content on storage (pH 5.0, 390 mg/ml water, age 16 weeks, Batch #13 (D3), #14 (D3 P)): 490 IU/ml
- Vitamin D content on storage (pH 5.0, 435 mg/ml water, age 0 weeks, Batch #15 (D3), #16 (D3 P)): 431 IU/ml and 433 IU/ml
- Vitamin D content on storage (pH 5.0, 435 mg/ml water, age 1 week, Batch #15 (D3), #16 (D3 P)): 418 IU/ml
- Vitamin D content on storage (pH 5.0, 435 mg/ml water, age 2 weeks, Batch #15 (D3), #16 (D3 P)): 395 IU/ml and 404 IU/ml
- Vitamin D content on storage (pH 5.0, 435 mg/ml water, age 4 weeks, Batch #15 (D3), #16 (D3 P)): 403 IU/ml and 394 IU/ml
- Vitamin D content on storage (pH 5.0, 435 mg/ml water, age 8 weeks, Batch #15 (D3), #16 (D3 P)): 364 IU/ml
- Vitamin D content on storage (pH 5.0, 435 mg/ml water, age 12 weeks, Batch #15 (D3), #16 (D3 P)): 343 IU/ml and 338 IU/ml
- Vitamin D content on storage (pH 5.0, 435 mg/ml water, age 16 weeks, Batch #15 (D3), #16 (D3 P)): 256 IU/ml
